Assay results taken from patent US20220117972A1, “USE OF PPAR-DELTA AGONISTS IN THE TREATMENT OF MITOCHONDRIAL MYOPATHY” (Reneo Pharmaceuticals, Inc., priority 2019, published 2022).

How the values were obtained:
PPARα [1] = biological target: T1, PPARα (UniProt Q4PNY3); assay: PPAR receptor transactivation assay, monkey PPARα; assay type: cell-based
T1 construct: This is inferred from the cell pool name 'UAS-bla-Gal4' and from the general description in b82 and b85
T1 sequence (Q4PNY3 1-467): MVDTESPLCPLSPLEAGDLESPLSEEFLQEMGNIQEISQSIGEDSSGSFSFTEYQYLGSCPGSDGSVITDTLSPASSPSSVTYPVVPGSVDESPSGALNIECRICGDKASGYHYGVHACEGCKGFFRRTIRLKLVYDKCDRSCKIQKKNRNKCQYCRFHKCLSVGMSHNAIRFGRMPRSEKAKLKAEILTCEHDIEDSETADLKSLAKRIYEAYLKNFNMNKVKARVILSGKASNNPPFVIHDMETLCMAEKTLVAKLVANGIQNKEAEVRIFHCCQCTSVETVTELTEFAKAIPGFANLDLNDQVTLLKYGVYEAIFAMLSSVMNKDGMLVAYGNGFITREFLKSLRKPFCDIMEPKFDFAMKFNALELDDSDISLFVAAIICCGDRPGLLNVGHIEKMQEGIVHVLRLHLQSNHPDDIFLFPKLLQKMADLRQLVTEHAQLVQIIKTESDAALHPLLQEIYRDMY

PPARγ = biological target: T2, PPARγ (Mus musculus, UniProt P37238); assay: PPAR receptor transactivation assay, mouse PPARγ; assay type: cell-based
T2 construct: expressed in transfected cells; host or cells: Jump-In GripTite HEK293
T2 sequence (P37238 238-503 limits assumed): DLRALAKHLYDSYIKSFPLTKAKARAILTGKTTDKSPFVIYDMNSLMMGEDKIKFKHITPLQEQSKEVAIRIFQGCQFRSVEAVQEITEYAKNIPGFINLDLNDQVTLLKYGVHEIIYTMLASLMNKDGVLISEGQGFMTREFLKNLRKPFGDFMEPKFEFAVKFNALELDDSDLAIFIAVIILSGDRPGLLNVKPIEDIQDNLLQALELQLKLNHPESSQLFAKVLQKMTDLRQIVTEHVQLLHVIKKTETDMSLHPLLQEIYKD

[2] = test system: human retinoid X receptor (hRXR); assay: human retinoid X receptor activity; assay type: cell-based
LXRα = biological target: T3, LXRα (Homo sapiens, UniProt Q13133); assay: nuclear receptor LXRα activity; assay type: cell-based
T3 sequence (Q13133 1-447): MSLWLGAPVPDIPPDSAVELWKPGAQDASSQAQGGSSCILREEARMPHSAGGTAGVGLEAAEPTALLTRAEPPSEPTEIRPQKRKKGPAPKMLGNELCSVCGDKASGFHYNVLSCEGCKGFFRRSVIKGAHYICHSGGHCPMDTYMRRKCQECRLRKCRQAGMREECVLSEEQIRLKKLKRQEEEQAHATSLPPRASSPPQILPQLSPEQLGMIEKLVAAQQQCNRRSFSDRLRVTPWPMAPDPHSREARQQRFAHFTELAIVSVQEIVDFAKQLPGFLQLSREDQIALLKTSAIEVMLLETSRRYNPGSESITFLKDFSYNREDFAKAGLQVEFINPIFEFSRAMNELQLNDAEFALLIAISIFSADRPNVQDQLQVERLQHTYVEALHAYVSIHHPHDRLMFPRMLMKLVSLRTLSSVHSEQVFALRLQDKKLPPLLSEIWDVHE

[3] = test system: PPARδ regulated genes (CPT1b, PDK4, PGC-1α); assay: in vivo gene expression in mouse muscle, 7-day study; conditions: male C57BL/6 mice, oral 30 mg/kg once daily 7 days, quadriceps muscle 4 h after final dose
Protocol: Male C57BL/6 mice were administered an oral dose of Compound 1 at 30 mg/kg, once daily for 7 consecutive days. Four hours following the final dose administration on day 7, all mice were euthanized, and two samples of quadriceps muscle were dissected from the right and left limbs.

PPARα [4] = biological target: T4, PPARα (Mus musculus, UniProt P23204); assay: PPAR receptor transactivation assay, mouse PPARα; assay type: cell-based
T4 construct: expressed in transfected cells; host or cells: Jump-In GripTite HEK293
T4 sequence (P23204 239-466 limits assumed): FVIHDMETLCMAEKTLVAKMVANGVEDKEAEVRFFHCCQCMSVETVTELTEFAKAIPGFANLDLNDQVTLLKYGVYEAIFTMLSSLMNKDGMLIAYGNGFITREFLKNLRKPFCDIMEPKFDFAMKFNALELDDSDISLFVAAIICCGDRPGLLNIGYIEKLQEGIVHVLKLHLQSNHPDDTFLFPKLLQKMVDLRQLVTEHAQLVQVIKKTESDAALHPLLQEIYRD

LXRβ = biological target: T5, LXRβ (Homo sapiens, UniProt P55055); assay: nuclear receptor LXRβ activity; assay type: cell-based
T5 sequence (P55055 1-460): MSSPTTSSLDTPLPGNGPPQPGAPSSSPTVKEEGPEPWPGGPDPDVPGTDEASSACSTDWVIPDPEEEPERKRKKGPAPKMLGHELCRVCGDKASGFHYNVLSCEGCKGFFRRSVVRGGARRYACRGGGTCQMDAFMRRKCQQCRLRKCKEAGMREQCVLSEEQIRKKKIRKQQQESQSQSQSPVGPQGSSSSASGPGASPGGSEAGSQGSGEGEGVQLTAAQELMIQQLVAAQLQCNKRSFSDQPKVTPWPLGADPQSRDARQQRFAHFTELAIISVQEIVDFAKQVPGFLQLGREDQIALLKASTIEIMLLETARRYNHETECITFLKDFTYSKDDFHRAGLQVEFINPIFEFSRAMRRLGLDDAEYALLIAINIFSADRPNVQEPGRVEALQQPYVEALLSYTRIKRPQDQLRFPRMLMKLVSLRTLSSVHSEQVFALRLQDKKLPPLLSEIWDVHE

human muscle cell lines = assay: fatty acid oxidation in human muscle cell line; assay type: cell-based; conditions: in vitro

EC50 (PPARα [1]): > 1000 nM
EC50 (PPARγ): > 10000 nM
hRXR activity [2]: did not show any
activity on the nuclear receptor LXRα (LXRα): did not show any
EC50 (PPARα [4]): > 10000 nM
activity on the nuclear receptor LXRβ (LXRβ): did not show any
Structure (SMILES): Cc1cc(OC/C=C(/c2ccc(F)cc2)c2ccc(C#CCN3CCOCC3)cc2)ccc1OCC(=O)O [Compound 1, (E)-[4-[3-(4-Fluorophenyl)-3-[4-[3-(morpholin-4-yl)propynyl]phenyl]allyloxy]-2-methyl-phenoxy]acetic acid]
expression patterns of PPARδ regulated genes (CPT1b, PDK4, PGC-1α) [3]: altered the expression patterns
fatty acid oxidation (human muscle cell lines): dose-dependent increase
